This note sets out measurements from ChEMBL document CHEMBL1122949, “Pepstatin-derived inhibitors of aspartic proteinases. A close look at an apparent transition-state analogue inhibitor” (J Med Chem, 1985).

The term IC50 denotes the point on the concentration scale where inhibition reaches its midpoint. Read a low IC50 as higher potency. Usually Ki stands for a dissociation constant, usually derived from enzyme kinetics or from competition with a known ligand. High values mean weaker binding, low ones tighter binding.

Assay [1] concerns the target T1, Renin (Homo sapiens, UniProt P00797).
T1 sequence (P00797 whole entry): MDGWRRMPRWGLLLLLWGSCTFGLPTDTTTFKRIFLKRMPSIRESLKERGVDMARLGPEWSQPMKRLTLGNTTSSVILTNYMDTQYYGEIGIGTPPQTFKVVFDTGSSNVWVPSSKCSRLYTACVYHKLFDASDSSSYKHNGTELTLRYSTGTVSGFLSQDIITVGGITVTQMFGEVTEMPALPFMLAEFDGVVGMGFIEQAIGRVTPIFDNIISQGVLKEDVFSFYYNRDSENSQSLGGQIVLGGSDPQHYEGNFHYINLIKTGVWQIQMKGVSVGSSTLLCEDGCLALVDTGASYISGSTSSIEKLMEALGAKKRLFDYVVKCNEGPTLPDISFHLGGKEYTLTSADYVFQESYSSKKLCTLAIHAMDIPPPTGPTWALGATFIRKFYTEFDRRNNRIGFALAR
Put plainly: Compound was evaluated for the ability to inhibit human plasma renin. It counts as cell-free.

Assay [2] addresses Pepsin A (Sus scrofa, UniProt P00791). Put plainly: Inhibition of porcine pepsin.
Assay [3] in a line: Compound was evaluated for the ability to inhibit penicillopepsin.

Numbered stars: 1 amine (or outer) side, 2 acyl side, 3 side chain; on linkers, the order of the positions; unused ones are H or OH. Square brackets hold non-standard residues; d marks the D form. Peptide text beside a SMILES is read from it. * marks the point of attachment. ξ: configuration not given here. X1 = CC[C@H](C)[C@H](NC(=O)[C@H](CC(C)C)NC[C@H](CC(C)C)N*)C(=O)N[C@@H](Cc1c[nH]cn1)C(=O)O; LeuΨ(ξCHOHCH2)Val = CC(C)C[C@H](N[*:1])C(O)C[C@H](C(=O)[*:2])C(C)C; Sta(3ξ) = CC(C)C[C@H](N[*:1])C(O)CC(=O)[*:2]; Isovaleryl = CC(C)CC(=O)*; Boc = CC(C)(C)OC(=O)*

Pepsin A, sequence (P00791 whole entry): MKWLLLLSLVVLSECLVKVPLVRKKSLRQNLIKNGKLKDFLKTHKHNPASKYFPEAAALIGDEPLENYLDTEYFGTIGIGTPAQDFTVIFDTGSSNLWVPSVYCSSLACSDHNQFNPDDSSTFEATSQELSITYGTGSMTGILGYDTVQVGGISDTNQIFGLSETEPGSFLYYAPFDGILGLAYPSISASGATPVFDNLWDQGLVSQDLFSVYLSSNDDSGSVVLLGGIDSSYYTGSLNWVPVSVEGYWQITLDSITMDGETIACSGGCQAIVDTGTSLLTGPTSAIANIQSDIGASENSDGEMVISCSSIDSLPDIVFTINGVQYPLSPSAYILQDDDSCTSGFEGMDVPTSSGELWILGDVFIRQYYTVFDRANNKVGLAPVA

In assay [1], `CC[C@H](C)[C@H](NC(=O)[C@H](Cc1ccccc1)NC(=O)[C@H](Cc1ccccc1)NC(=O)[C@H](Cc1c[nH]cn1)NC(=O)[C@H](Cc1ccccc1)NC(=O)[C@@H]1CCCN1C(=O)[C@H](Cc1c[nH]cn1)NC(=O)[C@@H]1CCCN1)C(=O)N[C@@H](Cc1c[nH]cn1)C(=O)O` displayed an IC50 of 7000 nM.
Turning to `CC(C)CCC(=O)NC(=O)[C@H](C)NC(=O)CCC(O)[C@@H](CC(C)C)NC(=O)[C@H](NC(=O)CC(C)C)C(C)C` (some centres not stated), in assay [2], the Ki is 50 nM.
On the same count and under the same terms, for `CC(C)CCC(=O)NC(=O)CNC(=O)CC(O)[C@@H](CC(C)C)NC(=O)[C@H](NC(=O)CC(C)C)C(C)C` (some centres not stated) the value was 56 nM.
In assay [1], `CC[C@H](C)[C@H](NC(=O)[C@H](CC(C)C)NC[C@H](CC(C)C)NC(=O)[C@H](Cc1c[nH]cn1)NC(=O)[C@H](Cc1ccccc1)NC(=O)[C@@H]1CCCN1C(=O)[C@H](Cc1c[nH]cn1)NC(=O)[C@@H]1CCCN1)C(=O)N[C@@H](Cc1c[nH]cn1)C(=O)O` (H-PHPFH-X1) gave an IC50 of 10 nM. This lies in the double-digit nanomolar range.
On the same count and under the same terms, next, `CC[C@H](C)[C@H](NC(=O)CC(O)[C@H](CC(C)C)NC(=O)[C@H](Cc1c[nH]cn1)NC(=O)[C@H](Cc1ccccc1)NC(=O)[C@@H]1CCCN1C(=O)[C@H](Cc1c[nH]cn1)NC(=O)CC(C)C)C(=O)N[C@@H](Cc1ccccc1)C(=O)OC` (some centres not stated) (Isovaleryl-HPFH[Sta(3ξ)]IF-OMe): 0.6 nM.
As to `CC(C)CCC(=O)NC(=O)[C@H](C)NC(=O)CC(=O)[C@H](CC(C)C)NC(=O)[C@@H](NC(=O)[C@@H](NC(=O)CC(C)C)C(C)C)C(C)C`, the Ki came to 10 nM in assay [2] and 85 nM in assay [3].
The compound `CC(C)CC(=O)N[C@H](C(=O)N[C@H](C(=O)N[C@H](CCC(=O)NC(C)C(=O)N[C@H](CCC(=O)O)CC(C)C)CC(C)C)C(C)C)C(C)C` (some centres not stated) had a Ki in assay [2] of 210 nM. This counts as sub-micromolar.
`CC(C)CCC(=O)NC(=O)[C@H](C)NC(=O)CC(O)[C@@H](CC(C)C)N(C)C(=O)[C@H](NC(=O)[C@@H](NC(=O)CC(C)C)C(C)C)C(C)C` (stereo in doubt; 13a(3s)): the Ki in assay [2] is 1200 nM; in assay [3] it was over 5000 nM.
In assay [2], `CC(C)CNC(=O)[C@H](C)NC(=O)[C@@H](C)CC(O)[C@@H](CC(C)C)NC(=O)[C@H](NC(=O)CC(C)C)C(C)C` (stereo in doubt; 16b(4R)) returned a Ki of 700 nM.
The same measure, in the same setting: next, `CC(C)CCC(=O)NC(=O)[C@@H](C)NC(=O)CC(=O)[C@H](CC(C)C)NC(=O)[C@@H](NC(=O)CC(C)C)C(C)C`: 56 nM.
Take `CC[C@H](C)[C@H](NC(=O)[C@@H](CC(O)[C@H](CC(C)C)NC(=O)[C@H](Cc1cnc[nH]1)NC(=O)[C@H](Cc1ccccc1)NC(=O)[C@@H]1CCCN1C(=O)[C@H](Cc1cnc[nH]1)NC(=O)OC(C)(C)C)C(C)C)C(=O)N[C@@H](Cc1cnc[nH]1)C(=O)O` (some centres not stated) (Boc-HPFH[LeuΨ(ξCHOHCH2)Val]IH-OH): the IC50 in assay [1] came to 0.7 nM.
As for `CCOC(=O)CC(O)[C@H](CC(C)C)NC(=O)[C@@H](NC(=O)[C@@H](NC(=O)CC(C)C)C(C)C)C(C)C` (some centres not stated), the Ki in assay [2] came out at 10 nM; in assay [3] it was 47 nM.
For the compound `CC(C)CNC(=O)CNC(=O)[C@@H](C)CC(O)[C@@H](CC(C)C)NC(=O)[C@H](NC(=O)CC(C)C)C(C)C` (some centres not stated), affinity in assay [2] was put at a Ki of 53 nM.
In the case of `CC(C)CC(=O)N[C@H](C(=O)N[C@H](C(=O)N[C@@H](CC(C)C)[C@@H](O)CC(=O)N[C@@H](C)C(=O)N[C@@H](CC(C)C)[C@@H](O)CC(=O)O)C(C)C)C(C)C` [PEPSTATIN], the results for the Ki in assay [2] and in assay [3] were 0.056 nM and 0.15 nM, respectively.
In assay [2], `CC(C)CCC(=O)NC(=O)[C@@H](C)CC(O)[C@@H](CC(C)C)NC(=O)[C@H](NC(=O)CC(C)C)C(C)C` (some centres not stated) displayed an inhibition constant (Ki) of 27 nM.
The same measure, in the same setting: next, `CC(C)CCC(=O)NC(=O)[C@H](C)NC(=O)CC(O)[C@@H](Cc1ccccc1)NC(=O)[C@H](NC(=O)CC(C)C)C(C)C` (some centres not stated): 0.9 nM.
As to `CC[C@H](C)[C@H](NC(=O)[C@H](CC(C)C)NC[C@H](CC(C)C)NC(=O)C(Cc1c[nH]cn1)NC(=O)[C@H](Cc1ccccc1)NC(=O)[C@@H]1CCCN1C(=O)C(N)Cc1c[nH]cn1)C(=O)NC(Cc1c[nH]cn1)C(=O)O` (stereo in doubt), it took 1000 nM to reach half-maximal inhibition in assay [1] (IC50).
Take `CC(C)CNC(=O)[C@@H](C)NC(=O)[C@@H](C)CC(=O)[C@H](CC(C)C)NC(=O)[C@@H](NC(=O)CC(C)C)C(C)C`: the Ki in assay [2] amounted to 110 nM. This lies in the sub-micromolar range.
`CC[C@H](C)[C@H](NC(=O)CC(O)[C@H](CC(C)C)NC(=O)[C@H](Cc1c[nH]cn1)NC(=O)[C@H](Cc1ccccc1)NC(=O)[C@@H]1CCCN1C(=O)[C@H](Cc1c[nH]cn1)NC(=O)CC(C)C)C(=O)N[C@@H](Cc1ccccc1)C(N)=O` (some centres not stated) (Isovaleryl-HPFH[Sta(3ξ)]IF-NH2) yielded an IC50 in assay [1] of 1.9 nM.
As to `CC(C)CCC(=O)NC(=O)[C@@H](C)NC(=O)CC(O)[C@H](CC(C)C)NC(=O)[C@@H](NC(=O)CC(C)C)C(C)C` (some centres not stated), the Ki was 3 nM in assay [2] and 7600 nM in assay [3].
`CC(C)CNC(=O)[C@H](C)NC(=O)[C@@H](C)CC(O)[C@@H](CC(C)C)NC(=O)[C@H](NC(=O)CC(C)C)C(C)C` (stereo in doubt; 16a(4S)) yielded a Ki in assay [2] of 3 nM. This counts as single-digit nanomolar.
On the same count and under the same terms, next, `CC(C)CCC(=O)NC(=O)C(C)NC(=O)CC(O)[C@H](CC(C)C)NC(=O)[C@@H](NC(=O)[C@@H](NC(=O)CC(C)C)C(C)C)C(C)C` (some centres not stated): 2000 nM.
